# Experimental data taken from US7629317B2, “Control of growth and repair of gastro-intestinal tissues by gastrokines and inhibitors” (The University of Chicago, priority 2001, dated 2009).
# Entries after “also recorded” stand apart in the source; their conditions may differ.
# Assays:
# IEC-18 cells = assay: Growth of confluent cultures of IEC-18 cells (cell count); format: cell-based, rat; conditions: confluent IEC-18 cultures, FIG. 13; read-out: half-maximal concentration (K1/2) for growth stimulation
# Method: Confluent cultures of IEC-18 cells were prepared. One day later, medium was aspirated and replaced with 5 ml of DMEM containing CS (0.5%) and insulin, without (control) or with mitogenic peptide 58-99 (8 μg/ml). Sister plates receiving 1 ml medium and different amounts of peptide 67-85 were incubated at 1 hr at 38° C. on a CO2 incubator, and then an additional 4 ml of medium was added to each dish. Peptide 58-99 was added to 2 of the 4-sister plates at each concentration of peptide 67-85, and the number of cells was counted. […] Stimulation of cell growth by mitogenic peptide 58-99 was completely abolished by preincubation of cells with 0.25 μg/ml of peptide 67-85. […] Values for the number of cells per culture are shown relative to multiplication of cells exposed to the vehicle during the same period.
# Urea (6 M) was employed to release proteins from the insoluble fraction solubilize rhAMP-18 containing the His6-tag (SEQ ID NO: 16), and make it available to bind to the Ni^2+-charged resin from which it was subsequently eluted with a gradient of imidazole (0 to 200 mM). The amount of eluted rhAMP-18 was measured using the BCA assay, and the appearance of a single band at the predicted size of 19-20 kD was confirmed by SDS-PAGE followed by immunoblotting. To determine if eluted rhAMP-18 renatured to assume a structure that was mitogenic, aliquots of the eluate (following removal of urea and imidazole by dialysis) were added to cultures of IEC-18 cells and the number of cells was counted 4 days later. […] AMP peptide 77-97 refers to the mature protein; same as peptide 97-117 of human precursor protein: Table 1. These observations indicate that biologically active recombinant human AMP-18 that can be utilized in diverse clinical situations is available. The mitogenic potency of rhAMP-18 is in the nanomolar range which would be expected for a native gastric cell growth factor that participates in the maintenance and repair of the stomach in vivo.
# (§1) To characterize the capacity of gastric and intestinal cells to respond to AMP-18, AGS gastric adenocarcinoma cells, HAE human gastric antrum mucosa primary cultures transformed with SV40 large T antigen, rat diploid small intestinal epithelial cells of the IEC-6 (FIG. 15) and IEC-18 lines, NCI N-87 gastric carcinoma cells, and SK-GT5 gastroesophageal adenocarcinoma cells were studied; human WI-38 fibroblasts and HeLa cells served as non-GI control cell lines. Mitogenesis was assayed by performing cell counts 3 to 4 days after exposing cells to the agent of interest, trypsinizing the culture to prepare single cells, and confirming this while counting them in a hemocytometer.
# hsp25, hsp72 = assay: Expression of heat shock proteins by IEC-18 cells after thermal injury (immunoblot); format: cell-based, rat; conditions: 42° C. 23 min, peptide 8 μg/ml; 12 and 24 hr; listed as AMP peptide
# Method: FIG. 42. Effect of AMP peptide on expression of heat shock proteins by intestinal epithelial cells after thermal injury. IEC-18 cell monolayers were subjected to non-lethal heat shock injury by exposure to 42° C. for 23 min. Immediately thereafter some cultures received AMP peptide (8 μg/ml) (P on figure); control cultures (C) received vehicle. Whole cell protein was analyzed by immunoblotting. Increased expression of hsp25 and induced hsp72 is seen 12 hr after heat shock in control cultures, but constitutive expression of hsc73 is not altered. Expression of hsp25 and 72 was increased after treatment with AMP peptide compared to vehicle at 12 and 24 hr.
# In an effort to identify molecules that could mediate the cytoprotective effect of AMP peptide, it was asked if exposing intestinal epithelial cells to the peptide could modify induction of heat shock proteins (hsps) (Musch et al., 1996). Diploid non-transformed rat intestinal epithelial IEC-18 cells were used to study induction of hsps in response to thermal injury rather than C2 cells—which constitutively express hsp27 and hsp72 at high levels, possibly because they are transformed. (Hsp27 is found in human C2 cells, and hsp25 in rat IEC-18 cells. Hsp72 is often referred to as hsp70). The results depicted in FIG. 42 indicate that, as expected, hsc73 and hsp25 are constitutively expressed (0 hr), but hsp72 is not. […]
# SK-GT5 cells = assay: Growth of SK-GT5 gastroesophageal adenocarcinoma cells; format: cell-based; conditions: concentration-dependent
# Method: as §1
# Enterococcus faecalis = assay: Growth of other bacteria and fungi; format: cell-based
# Streptococcus pneumoniae = assay: Growth of other bacteria and fungi; format: cell-based
# [1] = tested on: occludin, ZO-1, ZO-2, claudin-5, E-cadherin, JAM; assay: Accumulation of tight and adherens junction proteins in C2 cells (immunoblot of insoluble fraction, confocal microscopy); format: cell-based, human
sequence,measurement,setting,value
"LDALVKEKKLQGKGPGGPPPK [97–117, peptide 77-97 of the mature protein, same as 97-117 of the human precursor]",EC50,IEC-18 cells,~300 nM
same,expression of hsp25 and hsp72 compared to vehicle,"hsp25, hsp72",greater; also recorded: increased
same,growth of SK-GT5 cells,SK-GT5 cells,stimulated
same,growth of Enterococcus faecalis,Enterococcus faecalis,did not alter the growth
same,growth of Streptococcus pneumoniae,Streptococcus pneumoniae,did not alter the growth
same,occludin immunoreactivity of peptide-treated cells exposed to DSS,"[1]; DSS 4%, vehicle-treated declined about 50% at 1 hr, listed as AMP peptide",did not decline; also recorded: not reduced
same,"perijunctional actin, confocal microscopy",[1]; oxidant (0.3 mM monochloramine) injury,protected
same,"occludin immunoreactivity at cell junctions, confocal microscopy","[1]; pretreated prior to monochloramine 0.3 mM, vs untreated injured cells",more intense
